Key:
[1] = system: Ca9-22 (human oral squamous cell carcinoma, gingiva); assay: Cytotoxicity assay (MTT), Ca9-22 cells; format: cell-based; conditions: for TS (C/A): CC50 HGF / CC50 Ca9-22; for CC50: Homo sapiens, Ca9-22, 48 h, MTT, triplicate wells; for SI Ca9-22: average CC50 of nonmalignant cells / CC50 toward Ca9-22; for times of potency versus 5-FU toward Ca9-22: CC50 ratio to reference 5-FU
Description: (§1) The cytotoxicity of the compounds were assayed toward human oral squamous cell carcinoma cell lines derived from gingiva tissue (CA9–22) and tongue (HSC-2, HSC-3, HSC-4), and human normal oral cells (gingival fibroblasts, HGF; periodontal ligament fibroblasts, HPLF; pulp cells, HPC) with some minor modifications[16]^,[17]^,[26]^,[30–33]. In brief, cells were cultured in DMEM supplemented with 10% fetal bovine serum (FBS). Cells (2.5 × 10^3 cells/well) were inoculated and incubated for 48 h to achieve complete adherence. Near confluent cells were incubated for a further 48 h in the fresh culture medium containing each test compound (3.12, 6.25, 12.5, 25, 50, 100, 200, 400 μM) or 5-FU (positive control) (7.8, 15.6, 31.2, 62.5, 125, 250, 500, 1000 μM). The viable cell numbers were determined by the MTT method. Cytotoxicity induced by DMSO (0.0078, 0.0156, 0.03125, 0.0625, 0.125, 0.25, 0.5 or 1%) was subtracted from each well. The CC50 values were determined from the dose-response curves. The tumor selectivity (TS) was calculated by the following equation: TS = mean CC50 against normal cells/mean CC50 against cancer cells [shown as (D/B) or (C/A) in Table 1]. A potency selectivity expression (PSE) was calculated by multiplying the reciprocal of average CC50 values toward cancer cell lines and the average SI values toward these cell lines and expressed as a percentage [PSE = (D/B^2) × 100].

[2] = system: HSC-2 (human oral squamous cell carcinoma, tongue); assay: Cytotoxicity assay (MTT), HSC-2 cells; format: cell-based; conditions: for CC50: Homo sapiens, HSC-2, 48 h, MTT; for SI HSC-2: average CC50 of nonmalignant cells / CC50 toward HSC-2; for times of potency versus 5-FU toward HSC-2: CC50 ratio to reference 5-FU
Description: as §1

[3] = system: HSC-3 (human oral squamous cell carcinoma, tongue); assay: Cytotoxicity assay (MTT), HSC-3 cells; format: cell-based; conditions: for CC50: Homo sapiens, HSC-3, 48 h, MTT; for SI HSC-3: average CC50 of nonmalignant cells / CC50 toward HSC-3
Description: as §1

[4] = system: HSC-4 (human oral squamous cell carcinoma, tongue); assay: Cytotoxicity assay (MTT), HSC-4 cells; format: cell-based; conditions: for CC50: Homo sapiens, HSC-4, 48 h, MTT; for SI HSC-4: average CC50 of nonmalignant cells / CC50 toward HSC-4
Description: as §1

[5] = Cytotoxicity assay (MTT), HGF cells; format: cell-based; conditions: human, gingival fibroblasts (HGF), normal oral cells
Description: as §1

[6] = Cytotoxicity assay (MTT), HPLF cells; format: cell-based; conditions: human, periodontal ligament fibroblasts (HPLF), normal oral cells
Description: as §1

[7] = Cytotoxicity assay (MTT), HPC cells; format: cell-based; conditions: human, pulp cells (HPC), normal oral cells
Description: as §1

[8] = system: Human oral squamous cell carcinoma cells; assay: Cytotoxicity assay (MTT), mean over four OSCC cell lines; format: cell-based; conditions: for CC50: Homo sapiens, mean of Ca9-22, HSC-2, HSC-3, HSC-4, read-out: (B) Mean CC50, human oral squamous cell carcinoma cells; for TS (D/B): mean CC50 normal cells / mean CC50 OSCC cells; for PSE (D/B^2) × 100: potency selectivity expression, expressed as a percentage
Description: as §1

[9] = Cytotoxicity assay (MTT), mean over three normal oral cells; format: cell-based; conditions: human; mean of HGF, HPLF, HPC; read-out: (D) Mean CC50, human normal oral cells
Description: as §1

hCA I = hCA I (Homo sapiens, UniProt P00915); assay: Carbonic anhydrase inhibition assay (esterase activity, 348 nm), hCA I; format: biochemical; conditions: for Ki: Lineweaver-Burk, three concentrations; for IC50: from activity (%) versus compound plots; for times more potent than AZA toward hCA I: in terms of IC50 values
hCA I, sequence (P00915 whole entry): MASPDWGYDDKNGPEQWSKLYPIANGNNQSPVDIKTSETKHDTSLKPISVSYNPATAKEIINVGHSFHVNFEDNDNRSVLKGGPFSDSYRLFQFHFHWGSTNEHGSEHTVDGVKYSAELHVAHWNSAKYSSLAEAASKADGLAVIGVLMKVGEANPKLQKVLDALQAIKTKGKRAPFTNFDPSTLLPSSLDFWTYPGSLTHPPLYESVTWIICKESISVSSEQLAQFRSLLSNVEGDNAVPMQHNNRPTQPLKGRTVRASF

hCA II = hCA II (Homo sapiens, UniProt P00918); assay: Carbonic anhydrase inhibition assay (esterase activity, 348 nm), hCA II; format: biochemical; conditions: for Ki: Lineweaver-Burk, three concentrations; for IC50: from activity (%) versus compound plots; for times more potent than AZA toward hCA II: in terms of IC50 values

Compound	TS (C/A) [1]	CC50 [1] [µM]	SI Ca9-22 [1]	CC50 [2] [µM]	SI HSC-2 [2]	CC50 [3] [µM]	SI HSC-3 [3]	CC50 [4] [µM]	CC50 at 48 h [5] [µM]	CC50 at 48 h [6] [µM]	CC50 at 48 h [7] [µM]	CC50 [8] [µM]	TS (D/B) [8]	PSE (D/B^2) × 100 [8]	CC50 at 48 h [9] [µM]	times of potency versus 5-FU toward Ca9-22 [1]	SI HSC-4 [4]	Ki (hCA I) [µM]	IC50 (hCA I) [µM]	times more potent than AZA toward hCA I (hCA I)	also measured
O=c1[nH]cc(F)c(=O)[nH]1 [Compound 5-FU, 5-Fluorouracil, reference compound]	>10.0	100	>167.3	45.7	>16.1	27.3	>71.5	17.3	> 1000	208	> 1000	47.6	>15.5	>32.6	> 736	–	–	–	–	–	–
NS(=O)(=O)c1ccc(N2N=C(c3ccccc3)CC2c2ccc(O)cc2)cc1 (stereo not drawn) [Compound 8, 4-[5-(4-Hydroxyphenyl)-3-phenyl-4,5-dihydro-1H-pyrazol-1-yl]benzenesulfonamide]	2.0	42	1.8	67	1.1	66.3	1.1	50.3	85	54.3	88.3	56.4	1.3	2.3	75.9	2.4	1.5	0.00484 ± 0.00078	0.00481	39.5	Ki (hCA II): 0.00459 ± 0.00083 µM; IC50 (hCA II): 0.00495 µM; times more potent than AZA toward hCA II (hCA II): 40.3
Cc1ccc(C2=NN(c3ccc(S(N)(=O)=O)cc3)C(c3ccc(O)cc3)C2)cc1 (stereo not drawn) [Compound 9, 4-[5-(4-Hydroxyphenyl)-3-(4-methylphenyl)-4,5-dihydro-1H-pyrazol-1-yl]benzene sulfonamide]	1.7	25.7	1.7	33.3	1.3	39.7	1.1	31.7	43.7	39.3	49.7	32.6	1.4	4.2	44.2	3.9	1.4	0.00459 ± 0.00125	0.00529	35.9	times of potency versus 5-FU toward HSC-2 [2]: 1.4; Ki (hCA II): 0.00748 ± 0.00252 µM; IC50 (hCA II): 0.00563 µM; times more potent than AZA toward hCA II (hCA II): 35.5
COc1ccc(C2=NN(c3ccc(S(N)(=O)=O)cc3)C(c3ccc(O)cc3)C2)cc1 (stereo not drawn) [Compound 10, 4-[5-(4-Hydroxyphenyl)-3-(4-methoxyphenyl)-4,5-dihydro-1H-pyrazol-1-yl] benzenesulfonamide]	1.3	37.7	1.3	65.3	0.8	47	1.1	40.7	47.3	44	61	47.7	1.1	2.2	50.8	2.7	1.2	0.00399 ± 0.0009	0.00484	39.3	Ki (hCA II): 0.00507 ± 0.00169 µM; IC50 (hCA II): 0.00537 µM; times more potent than AZA toward hCA II (hCA II): 37.1
NS(=O)(=O)c1ccc(N2N=C(c3ccc(F)cc3)CC2c2ccc(O)cc2)cc1 (stereo not drawn) [Compound 11, 4-[5-(4-Hydroxyphenyl)-3-(4-fluorophenyl)-4,5-dihydro-1H-pyrazol-1-yl] benzenesulfonamide]	1.8	36.3	1.6	46.3	1.3	43.3	1.4	39.3	66.7	43	67.7	41.3	1.4	3.5	59.1	2.8	1.5	0.0051 ± 0.00117	0.00568	33.5	times of potency versus 5-FU toward HSC-2 [2]: 1.0; Ki (hCA II): 0.00453 ± 0.00075 µM; IC50 (hCA II): 0.00572 µM; times more potent than AZA toward hCA II (hCA II): 34.9
NS(=O)(=O)c1ccc(N2N=C(c3ccc(Cl)cc3)CC2c2ccc(O)cc2)cc1 (stereo not drawn) [Compound 12, 4-[5-(4-Hydroxyphenyl)-3-(4-chlorophenyl)-4,5-dihydro-1H-pyrazol-1-yl] benzenesulfonamide]	2.0	22.3	2.0	39	1.1	38.3	1.2	31.3	44	38.3	50.7	32.8	1.4	4.1	44.3	4.5	1.4	0.00449 ± 0.00067	0.00491	38.7	times of potency versus 5-FU toward HSC-2 [2]: 1.2; Ki (hCA II): 0.00406 ± 0.0006 µM; IC50 (hCA II): 0.00425 µM; times more potent than AZA toward hCA II (hCA II): 46.9
NS(=O)(=O)c1ccc(N2N=C(c3ccc(Br)cc3)CC2c2ccc(O)cc2)cc1 (stereo not drawn) [Compound 13, 4-[5-(4-Hydroxyphenyl)-3-(4-bromophenyl)-4,5-dihydro-1H-pyrazol-1-yl] benzenesulfonamide]	1.7	20.7	1.7	37.7	0.9	34.7	1.0	25.7	34.7	29.7	39.7	29.7	1.2	3.9	34.7	4.8	1.4	0.00373 ± 0.00091	0.00422	45.1	times of potency versus 5-FU toward HSC-2 [2]: 1.2; Ki (hCA II): 0.00456 ± 0.00108 µM; IC50 (hCA II): 0.00465 µM; times more potent than AZA toward hCA II (hCA II): 42.9
NS(=O)(=O)c1ccc(N2N=C(c3cccs3)CC2c2ccc(O)cc2)cc1 (stereo not drawn) [Compound 14, 4-[5–(4-Hydroxyphenyl)-3-(thiophen-2-yl)-4,5-dihydro-1H-pyrazol-1-yl] benzenesulfonamide]	1.9	45.7	1.8	55	1.5	61.3	1.4	55.3	88.3	73	87.3	54.3	1.5	2.8	82.9	2.2	1.5	0.00417 ± 0.00093	0.00513	37.1	Ki (hCA II): 0.00385 ± 0.00057 µM; IC50 (hCA II): 0.00545 µM; times more potent than AZA toward hCA II (hCA II): 36.6
